From PubChem BioAssay AID2060912 (Molecular Pharmacology Branch, DTP, NCI, 2025)

System: HUVEC/MSC spheroids viability
Assay: Human HUVEC/MSC cell line growth inhibition [KRAS2];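 on viability, T/C: percent of DMSO vehicle control luminescence so 100% = untreated viability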
Conditions: for IC50: curve of first compound; for viability, T/C: stronger effect = lower value
Text: Multicellular complex tumor spheroid response to RAS pathway inhibitors in combination with a targeted agents in patient-derived cell lines with oncogenic KRAS variants from multiple cancer types
A high-throughput screen of multi-cell type tumor spheroids was designed to identify active combinations of targeted small molecules and KRAS pathway inhibitors. Complex spheroids include a stromal component modeled by human endothelial cells (HUVEC) and fibroblasts modeled by human mesenchymal stem cells (MSCs). The concentration ranges selected for each drug and investigational agent were based upon clinically achievable concentrations if the clinical Cmax of the agent was known. * [This particular assayID is a followup dataset requested by reviewers of the manuscript. It is a test of the HUVEC and MSC without the tumor cells, and was conducted using different drug plates and a different plate layout.]
Compounds. The drugs and investigational agents: BI-3406 (NSC825286), BAY-293 (NSC824723), batoprotafib (TNO155; NSC825523), sotorasib (AMG 510; NSC818433), MRTX1257 (NSC819558), elimusertib (BAY 1895344; NSC800525), molibresib (GSK525762; NSC774829), temuterkib (LY3214996; NSC803410), venetoclax (NSC766270), alisertib (NSC759677), olaparib (NSC753686), talazoparib (NSC767125), erdafitinib (NSC781556), ipatasertib (NSC767898), cabozantinib (NSC761068), nintedanib (NSC756659), abemaciclib (NSC768073), docetaxel (NSC628503), trametinib (NSC758246), and sapanisertib (NSC764658) were obtained from the National Cancer Institute (NCI) Developmental Therapeutics Program Chemical Repository. The FDA-approved anticancer drug set is available from the Developmental Therapeutics Program. […] The stock solutions were prepared in dimethyl sulfoxide (DMSO, Sigma-Aldrich, St. Louis, MO, cat. D2650) at 800-fold the tested concentration and stored at -70 degrees C prior to their use. All drugs and investigational agents were tested over a range starting from a high concentration at or near the clinical Cmax and decreasing in half-log increments. If the clinical Cmax for an agent had not been determined, the highest concentration tested was 10 microM.
Cell Culture. All cells were maintained in an incubator at 37 degrees C and 5% CO2 with 95% humidity. The PDC lines were cultured according to standard operating procedures established by the NCI PDMR (https://pdmr.cancer.gov/sops/default.htm). Briefly, all PDCs were thawed and cultured in Matrigel-coated flasks prepared with a working solution of 1X Ham's F-12 nutrient mix, without supplementation (Invitrogen, Waltham, MA, cat. 11765054), 100 U/mL penicillin-streptomycin (Invitrogen, cat. 15140122), and 2.5% Matrigel (Corning Inc., Corning, NY, cat. 354248) for the first three passages. All PDCs were cultured in complete DMEM/F-12 media containing advanced DMEM/F-12 (Invitrogen, cat. 12634028), 4.9% defined fetal bovine serum, heat inactivated (HyClone Laboratories Inc., Logan, UT, cat. SH30070.03HI), 389 ng/mL hydrocortisone (Sigma-Aldrich, cat. H4001), 9.7 ng/mL human EGF recombinant protein (Invitrogen, cat. PHG0313), 23.4 microg/mL adenine (Sigma-Aldrich, cat. A2786), 97.3 U/mL penicillin-streptomycin (Invitrogen, cat. 15140122), 1.9 mM L-glutamine (Invitrogen, cat. 25030081), and 9.7 microM Y-27632 dihydrochloride (Tocris Bioscience, Bristol, United Kingdom, cat. 1254). The PDCs were cultured in complete DMEM/F12 media without 9.7 microM Y-27632 dihydrochloride for at least two passages prior to the screen. The established cell line HOP-62 was cultured in RPMI 1640 medium, HEPES (Invitrogen, cat. 22400105) with 10% defined fetal bovine serum (HyClone Laboratories Inc., cat. SH30070.03) and 2 mM L-glutamine (Invitrogen, cat. 25030081). The pooled donor HUVEC were cultured in endothelial cell growth medium 2 (PromoCell, Heidelberg, Germany, cat. C-22011) and the hMSC were cultured in mesenchymal stem cell growth medium 2 (PromoCell, cat. C-28009). […]

Structure (SMILES): CC(=O)Nc1cccc(-n2c(=O)n(C3CC3)c(=O)c3c(Nc4ccc(I)cc4F)n(C)c(=O)c(C)c32)c1 + COc1cc2nc(C)nc(NC(C)c3cc(N)cc(C(F)(F)F)c3)c2cc1OC1CCOC1
- IC50 (second compound 0.0316 µM): 0.0153 µM
- IC50 (second compound 0.1 µM): 0.0152 µM
- IC50 (second compound 0.316 µM): 0.0131 µM
- IC50 (second compound 1 µM): 0.013 µM
- IC50 (second compound 3.16 µM): 0.0144 µM
- IC50 (second compound 10 µM): 0.0104 µM
- viability, T/C (second compound 0.0316 µM, first compound 94.9 pM): 126%
- viability, T/C (second compound 0.0316 µM, first compound 0.0003 µM): 124%
- viability, T/C (second compound 0.0316 µM, first compound 0.000949 µM): 105%
- viability, T/C (second compound 0.0316 µM, first compound 0.003 µM): 92.6%
- viability, T/C (second compound 0.0316 µM, first compound 0.00949 µM): 78.8%
- viability, T/C (second compound 0.0316 µM, first compound 0.03 µM): 18.3%
- viability, T/C (second compound 0.1 µM, first compound 94.9 pM): 105%
- viability, T/C (second compound 0.1 µM, first compound 0.0003 µM): 129%
- viability, T/C (second compound 0.1 µM, first compound 0.000949 µM): 129%
- viability, T/C (second compound 0.1 µM, first compound 0.003 µM): 74.2%
- viability, T/C (second compound 0.1 µM, first compound 0.00949 µM): 80.2%
- viability, T/C (second compound 0.1 µM, first compound 0.03 µM): 18.6%
- viability, T/C (second compound 0.316 µM, first compound 94.9 pM): 103%
- viability, T/C (second compound 0.316 µM, first compound 0.0003 µM): 134%
- viability, T/C (second compound 0.316 µM, first compound 0.000949 µM): 115%
- viability, T/C (second compound 0.316 µM, first compound 0.003 µM): 82.6%
- viability, T/C (second compound 0.316 µM, first compound 0.00949 µM): 68.8%
- viability, T/C (second compound 0.316 µM, first compound 0.03 µM): 14.6%
- viability, T/C (second compound 1 µM, first compound 94.9 pM): 108%
- viability, T/C (second compound 1 µM, first compound 0.0003 µM): 125%
- viability, T/C (second compound 1 µM, first compound 0.000949 µM): 91.4%
- viability, T/C (second compound 1 µM, first compound 0.003 µM): 76.7%
- viability, T/C (second compound 1 µM, first compound 0.00949 µM): 73.2%
- viability, T/C (second compound 1 µM, first compound 0.03 µM): 15.2%
- viability, T/C (second compound 3.16 µM, first compound 94.9 pM): 91%
- viability, T/C (second compound 3.16 µM, first compound 0.0003 µM): 104%
- viability, T/C (second compound 3.16 µM, first compound 0.000949 µM): 113%
- viability, T/C (second compound 3.16 µM, first compound 0.003 µM): 68.8%
- viability, T/C (second compound 3.16 µM, first compound 0.00949 µM): 76.4%
- viability, T/C (second compound 3.16 µM, first compound 0.03 µM): 15.9%
- viability, T/C (second compound 10 µM, first compound 94.9 pM): 83%
- viability, T/C (second compound 10 µM, first compound 0.0003 µM): 99%
- viability, T/C (second compound 10 µM, first compound 0.000949 µM): 97%
- viability, T/C (second compound 10 µM, first compound 0.003 µM): 59.6%
- viability, T/C (second compound 10 µM, first compound 0.00949 µM): 60.4%
- viability, T/C (second compound 10 µM, first compound 0.03 µM): 5.88%

Structure (SMILES): CC1OCC2(CCN(c3cnc(Sc4ccnc(N)c4Cl)c(N)n3)CC2)C1N (centres undefined) + COc1cc2nc(C)nc(NC(C)c3cc(N)cc(C(F)(F)F)c3)c2cc1OC1CCOC1
- IC50 (second compound 0.0316 µM): 6.36 µM
- IC50 (second compound 0.1 µM): 6.22 µM
- IC50 (second compound 0.316 µM): > 10 µM
- IC50 (second compound 1 µM): 6.15 µM
- IC50 (second compound 3.16 µM): 5.19 µM
- IC50 (second compound 10 µM): 3.73 µM
- viability, T/C (second compound 0.0316 µM, first compound 0.0316 µM): 101%
- viability, T/C (second compound 0.0316 µM, first compound 0.1 µM): 111%
- viability, T/C (second compound 0.0316 µM, first compound 0.316 µM): 91.8%
- viability, T/C (second compound 0.0316 µM, first compound 1 µM): 64.4%
- viability, T/C (second compound 0.0316 µM, first compound 3.16 µM): 70.6%
- viability, T/C (second compound 0.0316 µM, first compound 10 µM): 40.4%
- viability, T/C (second compound 0.1 µM, first compound 0.0316 µM): 115%
- viability, T/C (second compound 0.1 µM, first compound 0.1 µM): 90.7%
- viability, T/C (second compound 0.1 µM, first compound 0.316 µM): 76.8%
- viability, T/C (second compound 0.1 µM, first compound 1 µM): 72.4%
- viability, T/C (second compound 0.1 µM, first compound 3.16 µM): 63%
- viability, T/C (second compound 0.1 µM, first compound 10 µM): 40.8%
- viability, T/C (second compound 0.316 µM, first compound 0.0316 µM): 80.7%
- viability, T/C (second compound 0.316 µM, first compound 0.1 µM): 95.2%
- viability, T/C (second compound 0.316 µM, first compound 0.316 µM): 88%
- viability, T/C (second compound 0.316 µM, first compound 1 µM): 63.1%
- viability, T/C (second compound 0.316 µM, first compound 3.16 µM): 60.2%
- viability, T/C (second compound 0.316 µM, first compound 10 µM): 54.2%
- viability, T/C (second compound 1 µM, first compound 0.0316 µM): 83.6%
- viability, T/C (second compound 1 µM, first compound 0.1 µM): 100%
- viability, T/C (second compound 1 µM, first compound 0.316 µM): 67.5%
- viability, T/C (second compound 1 µM, first compound 1 µM): 72.3%
- viability, T/C (second compound 1 µM, first compound 3.16 µM): 57.9%
- viability, T/C (second compound 1 µM, first compound 10 µM): 44.3%
- viability, T/C (second compound 3.16 µM, first compound 0.0316 µM): 82%
- viability, T/C (second compound 3.16 µM, first compound 0.1 µM): 86.8%
- viability, T/C (second compound 3.16 µM, first compound 0.316 µM): 86.9%
- viability, T/C (second compound 3.16 µM, first compound 1 µM): 65%
- viability, T/C (second compound 3.16 µM, first compound 3.16 µM): 59.2%
- viability, T/C (second compound 3.16 µM, first compound 10 µM): 41.5%
- viability, T/C (second compound 10 µM, first compound 0.0316 µM): 68.7%
- viability, T/C (second compound 10 µM, first compound 0.1 µM): 73.8%
- viability, T/C (second compound 10 µM, first compound 0.316 µM): 69.8%
- viability, T/C (second compound 10 µM, first compound 1 µM): 59%
- viability, T/C (second compound 10 µM, first compound 3.16 µM): 56.7%
- viability, T/C (second compound 10 µM, first compound 10 µM): 27%
